Laboratory results: patent US10000471B2, “Pyrazole P38 map kinase inhibitors” (Respivert Limited, priority 2010, dated 2018)

Experiments:
[1] = target: T1, p38 MAPKα isoform (MAPK14) (Homo sapiens, UniProt Q16539); experiment: Enzyme inhibition assay (FRET, Z-LYTE), p38 MAPKα via MAPKAP-K2 activation; format: biochemical; conditions: read-out: Enzyme Inhibition IC50 p38α
T1 construct: purchased Invitrogen
Procedure: (§1) The enzyme inhibitory activities of compounds disclosed herein were determined by fluorescence resonance energy transfer (FRET) using synthetic peptides labelled with both donor and acceptor fluorophores (Z-LYTE, Invitrogen Ltd., Paisley, UK). Recombinant, phosphorylated p38 MAPKγ (MAPK12:Invitrogen) was diluted in HEPES buffer, mixed with the test compound at the desired final concentrations and incubated for 2 hr at RT. The FRET peptide (2 μM) and ATP (100 μM) were added to the enzyme/compound mixture and incubated for 1 hr. Development reagent (protease) was added for 1 hr prior to detection in a fluorescence microplate reader (Varioskan® Flash, ThermoFisher Scientific). The site-specific protease cleaves non-phosphorylated peptide only and eliminates the FRET signal. Phosphorylation levels of each reaction were calculated using the ratio of coumarin emission (donor) over fluorescein emission (acceptor) for which high ratios indicate high phosphorylation and low ratios indicate low phosphorylation levels. The percentage inhibition of each reaction was calculated relative to non-inhibited control and the 50% inhibitory concentration (IC50 value) then calculated from the concentration-response curve.
For the p38 MAPKα isoform (MAPK14: Invitrogen), enzyme activity was evaluated indirectly by determining the level of activation/phosphorylation of the down-stream molecule, MAPKAP-K2. The p38 MAPKα protein was mixed with the test compound for 2 hr at RT. […] Development reagent was then added and the mixture incubated for 1 hr before detection by fluorescence completed the assay protocol.

[2] = tested on: IL-8 release in d-U937 cells; experiment: LPS-induced IL-8 release in d-U937 cells; format: cell-based, human; conditions: Homo sapiens, dU937
Procedure: (§2) LPS-Induced TNFα/IL-8 Release in d-U937 Cells
(§3) U937 cells, a human monocytic cell line, were differentiated to macrophage-type cells by incubation with phorbol myristate acetate (PMA; 100 ng/ml) for 48 to 72 hr. Cells were pre-incubated with final concentrations of test compound for 2 hr and were then stimulated with 0.1 μg/mL of LPS (from E. Coli: O111:B4, Sigma) for 4 hr. The supernatant was collected for determination of TNFα and IL-8 concentrations by sandwich ELISA (Duo-set, R&D systems). The inhibition of TNFα production was calculated as a percentage of that achieved by 10 μg/mL of BIRB796 at each concentration of test compound by comparison against vehicle control. The relative 50% effective concentration (REC50) was determined from the resultant concentration-response curve. The inhibition of IL-8 production was calculated at each concentration of test compound by comparison with vehicle control. The 50% inhibitory concentration (IC50) was determined from the resultant concentration-response curve.

[3] = tested on: ICAM-1 induction in BEAS2B cells; experiment: Poly I:C-induced ICAM-1 induction in BEAS2B cells; format: cell-based, human; conditions: Homo sapiens, BEAS-2B, read-out: PolyIC/ICAM1 IC50 BEAS2B
Procedure: Poly I:C-Induced ICAM-1 Induction in BEAS2B Cells
Poly I:C (1 μg/mL) (Invivogene Ltd., San Diego, Calif.) was transfected into BEAS2B cells (human bronchial epithelial cells, ATCC) with Oligofectamine (Invitrogen, Carlsbad, Calif.). Cells were pre-incubated with final concentrations of test compounds for 2 hr and the level of ICAM1 expression on the cell surface was determined by cell-based ELISA. At a time point 18 hr after poly I:C transfection, cells were fixed with 4% formaldehyde in PBS and then endogenous peroxidase was quenched by the addition of 0.1% sodium azide and 1% hydrogen peroxide. Cells were washed with wash-buffer (0.1% Tween in PBS: PBS-Tween). and after blocking the wells with 5% milk in PBS-Tween for 1 hr, the cells were incubated with anti-human ICAM-1 antibody (Cell Signaling Technology, Danvers, Mass.) in 1% BSA PBS overnight at 4° C. The cells were washed with PBS-Tween and incubated with the secondary antibody (HRP-conjugated anti-rabbit IgG, Dako Ltd., Glostrup, Denmark). The ICAM-1 signal was detected by adding substrate and reading the absorbance at 450 nm against a reference wavelength of 655 nm using a spectrophotometer. The cells were then washed with PBS-Tween and total cell numbers in each well were determined by reading absorbance at 595 nm after Crystal Violet staining and elution by 1% SDS solution. The measured OD 450-655 readings were corrected for cell number by dividing with the OD595 reading in each well. The inhibition of ICAM-1 expression was calculated at each concentration of test compound by comparison with vehicle control. The 50% inhibitory concentration (IC50) was determined from the resultant concentration-response curve.

p38 MAPKγ (MAPK12) = target: T2, p38 MAPKγ (MAPK12) (Homo sapiens, UniProt P53778); experiment: Enzyme inhibition assay (FRET, Z-LYTE), p38 MAPKγ; format: biochemical; conditions: read-out: Enzyme Inhibition IC50 p38γ
T2 construct: purchased Invitrogen
T2 sequence (P53778 1-367): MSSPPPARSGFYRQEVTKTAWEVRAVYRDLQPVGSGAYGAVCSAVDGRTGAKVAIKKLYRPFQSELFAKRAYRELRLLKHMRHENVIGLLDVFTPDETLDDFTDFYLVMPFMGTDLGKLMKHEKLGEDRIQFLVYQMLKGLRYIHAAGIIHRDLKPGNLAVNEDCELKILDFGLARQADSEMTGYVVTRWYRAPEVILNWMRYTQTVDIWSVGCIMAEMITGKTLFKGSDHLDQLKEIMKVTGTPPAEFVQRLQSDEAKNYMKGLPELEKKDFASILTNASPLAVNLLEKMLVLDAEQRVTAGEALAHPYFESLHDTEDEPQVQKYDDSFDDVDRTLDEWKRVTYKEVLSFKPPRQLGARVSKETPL
Procedure: as §1

[4] = tested on: TNFα release in d-U937 cells; experiment: LPS-induced TNFα release in d-U937 cells; format: cell-based, human; conditions: Homo sapiens, dU937, relative to 10 μg/mL BIRB796, read-out: LPS/TNFα REC50 d-U937
Procedure: as §2, §3

[5] = tested on: Differentiated U937 cells; experiment: Cell viability MTT assay; format: cell-based, human; conditions: negative = apparent increase in viability; for MTT Assay (Viability) 4 h d-U937, percentage loss of cell viability: 4 hr in 5% FCS; for MTT Assay (Viability) 24 h d-U937, percentage loss of cell viability: 24 h in 10% FCS
Procedure: Differentiated U937 cells were pre-incubated with each test compound under two protocols: the first for 4 hr in 5% FCS and the second in 10% FCS for 24 h. The supernatant was replaced with 200 μL of new media and 10 μL of MTT stock solution (5 mg/mL) was added to each well. After incubation for 1 hr the media were removed, 200 μL of DMSO was added to each well and the plates were shaken lightly for 1 hr prior to reading the absorbance at 550 nm. The percentage loss of cell viability was calculated for each well relative to vehicle (0.5% DMSO) treatment. Consequently an apparent increase in cell viability for drug treatment relative to vehicle is tabulated as a negative percentage.

[6] = tested on: TNFα release in THP-1 cells; experiment: LPS-induced TNFα release in THP-1 cells; format: cell-based, human; conditions: Homo sapiens
Procedure: LPS-Induced TNFα Release in THP-1 Cells
THP-1 cells, a human monocytic cell line, were stimulated with 3 μg/mL of LPS (from E. Coli; 0111:B4, Sigma) for 4 hr and the supernatant collected for determination of the TNFα concentration by sandwich ELISA (Duo-set, R&D systems). The inhibition of TNFα production was calculated at each concentration by comparison with vehicle control. The 50% inhibitory concentration (IC50) was determined from the resultant concentration-response curve.

T1 sequence (Q16539 whole entry, canonical isoform): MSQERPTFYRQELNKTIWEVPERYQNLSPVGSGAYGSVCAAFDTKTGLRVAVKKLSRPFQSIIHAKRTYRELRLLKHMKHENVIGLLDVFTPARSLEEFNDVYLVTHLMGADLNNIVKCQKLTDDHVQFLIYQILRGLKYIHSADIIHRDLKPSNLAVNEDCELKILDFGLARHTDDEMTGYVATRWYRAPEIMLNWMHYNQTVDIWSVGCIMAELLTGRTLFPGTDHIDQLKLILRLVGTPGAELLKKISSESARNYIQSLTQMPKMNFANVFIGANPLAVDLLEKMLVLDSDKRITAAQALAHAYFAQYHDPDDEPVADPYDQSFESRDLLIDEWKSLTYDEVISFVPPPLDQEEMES

SMILES	IC50 [1]	IC50 [2]	IC50 (p38 MAPKγ (MAPK12))	EC50 [4]	IC50 [6]	IC50 [3]	MTT Assay (Viability) 4 h d-U937, percentage loss of cell viability [5]	MTT Assay (Viability) 24 h d-U937, percentage loss of cell viability [5]
COCC(=O)Nc1cc(Oc2ccc(NC(=O)Nc3cc(C(C)(C)C)nn3-c3ccc(C)cc3)c(F)c2)ccn1 [Example 1, N-(4-(4-(3-(3-tert-Butyl-1-p-tolyl-1H-pyrazol-5-yl)ureido)-3-fluorophenoxy)pyridin-2-yl)-2-methoxyacetamide]	105 nM	9.6 nM	40.5 nM	2.3 nM	0.9 nM	8.8 nM	1.7%	76.1%
COCC(=O)Nc1cc(Oc2ccc(NC(=O)Nc3cc(C(C)(C)C)nn3-c3ccc(C)cc3)c(S(C)(=O)=O)c2)ccn1 [Example 2, N-(4-(4-(3-(3-tert-Butyl-1-p-tolyl-1H-pyrazol-5-yl)ureido)-3-(methylsulfonyl)phenoxy)pyridin-2-yl)-2-methoxyacetamide]	37.7 nM	174 nM	366 nM	29.4 nM	5.3 nM	427 nM	−3.1%	32.7%
COCC(=O)Nc1cc(Oc2ccc(NC(=O)Nc3cc(C(C)(C)C)nn3-c3ccc(C)cc3)c3c2CCCC3)ccn1 [Example 5, N-(4-(4-(3-(3-tert-Butyl-1-p-tolyl-1H-pyrazol-5-yl)ureido)-5,6,7,8-tetrahydronaphthalen-1-yloxy)pyridin-2-yl)-2-methoxyacetamide]	18.7 nM	50.6 nM	1360 nM	0.4 nM	1.4 nM	21.9 nM	−3.5%	18.7%
CNCC(=O)Nc1cc(Oc2ccc(NC(=O)Nc3cc(C(C)(C)C)nn3-c3ccc(CO)cc3)c(Cl)c2Cl)ccn1 [Example 8, N-(4-(4-(3-(3-tert-Butyl-1-(4-(hydroxymethyl)phenyl)-1H-pyrazol-5-yl)ureido)-2,3-dichlorophenoxy)pyridin-2-yl)-2-(methylamino)acetamide]	7.6 nM	4.7 nM	17.2 nM	0.9 nM	0.5 nM	2.4 nM	−7.0%	85.6%
CSc1ccc(-n2nc(C(C)(C)C)cc2NC(=O)Nc2ccc(Oc3ccnc(NC(=O)N4CCCC4)c3)c(Cl)c2Cl)cc1 [Example 10, N-(4-(4-(3-(3-tert-Butyl-1-(4-(methylthio)phenyl)-1H-pyrazol-5-yl)ureido)-2,3-dichlorophenoxy)pyridin-2-yl)pyrrolidine-1-carboxamide]	36.7 nM	1.2 nM	184 nM	0.8 nM	0.4 nM	1.7 nM	−18.7%	17.0%

Now those with a lower IC50 [1], led by results:

IC50 [1]	IC50 [2]	IC50 (p38 MAPKγ (MAPK12))	EC50 [4]	IC50 [6]	SMILES	IC50 [3]	MTT Assay (Viability) 4 h d-U937, percentage loss of cell viability [5]	MTT Assay (Viability) 24 h d-U937, percentage loss of cell viability [5]
6.7 nM	3.9 nM	57.9 nM	0.1 nM	1.6 nM	COCC(=O)Nc1cc(Oc2ccc(NC(=O)Nc3cc(C(C)(C)C)nn3-c3ccc(C)cc3)c3cccnc23)ccn1 [Example 6, N-(4-(5-(3-(3-tert-butyl-1-p-tolyl-1H-pyrazol-5-yl)ureido)quinolin-8-yloxy)pyridin-2-yl)-2-methoxyacetamide]	7.2 nM	−21.3%	−14.6%
5.1 nM	41.2 nM	175 nM	1.1 nM	1 nM	COCC(=O)Nc1cc(Oc2ccc(NC(=O)Nc3cc(C(C)(C)C)nn3-c3ccc(C)cc3)c(C(F)(F)F)c2)ccn1 [Example 3, N-(4-(4-(3-(3-tert-Butyl-1-p-tolyl-1H-pyrazol-5-yl)ureido)-3-(trifluoromethyl)phenoxy)pyridin-2-yl)-2-methoxyacetamide]	24.4 nM	3.4%	22.9%
4.5 nM	0.1 nM	238 nM	0.1 nM	0.2 nM	COCC(=O)Nc1cc(Oc2ccc(NC(=O)Nc3cc(C(C)(C)C)nn3-c3ccc(C)cc3)c(Cl)c2C#N)ccn1 [Example 4, N-(4-(4-(3-(3-tert-Butyl-1-p-tolyl-1H-pyrazol-5-yl)ureido)-3-chloro-2-cyanophenoxy)pyridin-2-yl)-2-methoxyacetamide]	1.1 nM	−24.1%	64.5%
1.3 nM	124 nM	36.6 nM	112 nM	111 nM	COCC(=O)Nc1cc(Oc2ccc(NC(=O)Nc3cc(C(C)(C)C)nn3-c3ccc(C)cc3)c3[nH]ncc23)ccn1 [Example 7, N-(4-(7-(3-(3-tert-Butyl-1-p-tolyl-1H-pyrazol-5-yl)ureido)-1H-indazol-4-yloxy)pyridin-2-yl)-2-methoxyacetamide]	150 nM	−2.0%	64.5%
